Results as given in patent US11952349B2, “Anti-cancer nuclear hormone receptor-targeting compounds” (Nuvation Bio Inc., priority 2019, dated 2024).
Substitutions are numbered along the chain they refer to. Where two headings read alike, the source gives them in different places.

Legend:
[1] = target: T1, AR, cytosol from LnCaP cells (Homo sapiens, UniProt P10275, T878A); experiment: AR binding assay, 3H-R1881 (Biological Example 2)
T1 construct: AR in LNCaP cytosol was used; endogenous in cells; host or cells: LNCaP cells (cytosol)
T1 sequence (P10275 1-920 T878A): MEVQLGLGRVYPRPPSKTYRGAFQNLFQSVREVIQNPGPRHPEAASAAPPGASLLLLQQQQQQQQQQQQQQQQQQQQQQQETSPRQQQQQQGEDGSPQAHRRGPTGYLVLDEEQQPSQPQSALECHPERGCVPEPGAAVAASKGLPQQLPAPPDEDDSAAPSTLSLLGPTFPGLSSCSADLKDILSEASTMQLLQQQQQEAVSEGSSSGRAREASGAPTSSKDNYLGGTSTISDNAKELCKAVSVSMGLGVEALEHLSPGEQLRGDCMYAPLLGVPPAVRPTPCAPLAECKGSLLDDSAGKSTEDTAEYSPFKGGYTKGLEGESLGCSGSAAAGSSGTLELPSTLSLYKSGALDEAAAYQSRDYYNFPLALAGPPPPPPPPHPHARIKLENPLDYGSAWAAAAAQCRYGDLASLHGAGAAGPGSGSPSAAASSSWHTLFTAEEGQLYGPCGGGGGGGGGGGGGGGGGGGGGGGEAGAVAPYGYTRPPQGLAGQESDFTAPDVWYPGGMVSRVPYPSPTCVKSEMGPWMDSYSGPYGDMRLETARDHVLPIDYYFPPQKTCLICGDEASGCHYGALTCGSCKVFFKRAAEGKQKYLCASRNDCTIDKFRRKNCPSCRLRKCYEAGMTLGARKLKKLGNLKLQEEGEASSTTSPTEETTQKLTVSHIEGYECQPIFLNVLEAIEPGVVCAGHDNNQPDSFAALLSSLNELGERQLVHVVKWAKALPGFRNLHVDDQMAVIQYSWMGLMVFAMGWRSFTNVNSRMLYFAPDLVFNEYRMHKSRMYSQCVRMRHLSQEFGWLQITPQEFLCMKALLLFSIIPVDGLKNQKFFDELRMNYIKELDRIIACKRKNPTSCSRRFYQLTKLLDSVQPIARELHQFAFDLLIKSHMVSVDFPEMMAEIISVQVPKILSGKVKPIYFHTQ
Method: AR binding assay: To assess AR binding, test compound (top dose […], 4 fold serial dilution, 8 point dose response) and control (progesterone) were transferred to the assay plate. Cytosol from LnCaP cells was added to the plate, followed by addition of radiolabeled ^3H-R1881 at a final concentration of 1 nM. The plate was sealed, and the reaction was incubated at 300 rpm at 4° C. for 24 hrs. Radioligand absorption buffer (10 mM Tris-HCl, pH 7.4; 1.5 mM EDTA; 1 mM DTT; 0.25% charcoal; 0.0025% dextran) was then added to the plate, mixed, and incubated at 4° C. for 15 minutes. The plate was then centrifuged at 3000 rpm for 30 minutes at 4° C. The supernatant was transferred to the scint-tube and Tri-carb was used for scintillation counting. The data was analyzed using GraphPadPrism v5.0 and binding IC50 was determined as the concentration where 50% inhibition of radioligand binding was observed.

[2] = target: T2, full-length androgen receptor (Homo sapiens, UniProt P10275); experiment: AR antagonism assay (HEK293, testosterone 1 nM, Steady-glo); type: cell-based
T2 construct: HEK293 cells stably expressing the full-length androgen receptor; expressed in transfected cells
T2 sequence (P10275 1-920): T1 sequence (P10275 1-920 T878A) with A878T
Method: AR antagonism assay: To evaluate AR antagonist activity, test compound was added to the assay plate (top dose 10 μM, 3 fold serial dilution, 10 point dose response). HEK293 cells stably expressing the full-length androgen receptor were seeded at a density of 20000 cells/well in the assay plate. The assay plate was then incubated at room temperature for 10 minutes and at 37° C., 5% CO2 for 20 minutes. Testosterone was added to the assay plate at 1 nM final concentration and the assay plate was incubated at 37° C., 5% CO2 for 20 h. After the incubation period, Steady-glo was added to the assay plate and mixed at room temperature for 20 minutes on an orbital shaker, before reading out on the EnVision plate reader.

LNCap cells = experiment: Cell viability assay (CellTiterGlo, 6 days) LNCap; type: cell-based; details: Homo sapiens, 144 h
Method: Cell viability assay: LNCap, 22Rv1, and T47D cells were seeded at a density of 1500-2000 cells/well in 96 well plates, and a ‘T0’ (timepoint 0) was included along with the assay plate. The plates were then incubated at 37° C., 5% CO2 in a cell culture incubator overnight. On the next day, the ‘T0’ plate was assayed using CellTiterGlo (Promega, Inc) according to the manufacturer's instructions. The appropriate compounds were diluted in DMSO and added to the assay plate (final DMSO concentration of 0.2%) on the next day. The assay plates were incubated for 6 days at 37° C., 5% CO2. After the incubation period, the plates were assayed using CellTiterGlo (Promega, Inc) according to the manufacturer's instructions and luminescence was read on the EnVision plate reader. Inhibition the tested compounds was determined by the following formula: Inhibition rate (%)=(1−(RLU compound−RLU day0)/(RLU control−RLU day0))*100%. GraphPadPrism was used to analyze the data and determine absolute IC50 values.

[3] = Table 8, 3H-R1881 1 nM, read-out: AR binding
[4] = Table 8, testosterone 1 nM, read-out: AR antagonism
[5] = Table 7, testosterone 1 nM, read-out: AR antagonism

| SMILES | IC50 [1] [µM] | IC50 [2] [µM] | IC50 (LNCap cells; Table 7) [µM] | IC50 [1, 3] [µM] | IC50 [2, 4] [µM] | IC50 (LNCap cells; Table 8) [µM] | IC50 ([1]; Table 7, 3H-R1881 1 nM, read-out: AR binding) [µM] | IC50 [2, 5] [µM] |
| --- | --- | --- | --- | --- | --- | --- | --- | --- |
| C[C@@]12CCC(=O)C[C@H]1CC[C@H]1[C@H]2CC[C@]2(C)[C@@H]1CC[C@H]2OCCCCCCNC(=O)c1cc(Cc2n[nH]c(=O)c3ccccc23)ccc1F (stereo in doubt) [Compound 1426, N-(6-((5R,8S,9R,10R,13R,14R,17R)-10,13-dimethyl-3-oxohexadecahydro-1H-cyclopenta[a]phenanthren-17-yloxy)hexyl)-2-fluoro-5-((4-oxo-3,4-dihydrophthalazin-1-yl)methyl)benzamide] | 0.1 to 1 | 0.1 to 1 | 1 to 10 | – | – | – | – | – |
| CC#C[C@]1(O)CC[C@H]2[C@@H]3CCC4=CC(=O)CCC4=C3[C@@H](c3ccc(N(C)CCCCCC(=O)N4CCN(C(=O)c5cc(Cc6n[nH]c(=O)c7ccccc67)ccc5F)CC4)cc3)C[C@@]21C [Compound 135, 4-(4-fluoro-3-(4-(6-((4-((8S,11R,13S,14S,17S)-17-hydroxy-13-methyl-3-oxo-17-(prop-1-ynyl)-2,3,6,7,8,11,12,13,14,15,16,17-dodecahydro-1H-cyclopenta[a]phenanthren-11-yl)phenyl)(methyl)amino)hexanoyl)piperazine-1-carbonyl)benzyl)phthalazin-1(2H)-one] | – | – | – | 0.01 to 0.1 | 0.1 to 1 | 0.1 to 1 | – | – |
| C[C@]12C[C@H](CCCCCC(=O)N3CCN(C(=O)c4cc(Cc5n[nH]c(=O)c6ccccc56)ccc4F)CC3)C3=C4CCC(=O)C=C4CC[C@H]3[C@@H]1CCC2O (stereo partly drawn) [Compound 138, 4-(4-fluoro-3-(4-(6-((8S,11S,13S,14S)-17-hydroxy-13-methyl-3-oxo-2,3,6,7,8,11,12,13,14,15,16,17-dodecahydro-1H-cyclopenta[a]phenanthren-11-yl)hexanoyl)piperazine-1-carbonyl)benzyl)phthalazin-1(2H)-one] | 0.01 to 0.1 | 0.1 to 1 | 0.1 to 1 | – | – | – | – | – |
| Cn1ncnc1C1c2n[nH]c(=O)c3cc(F)cc(c23)N[C@@H]1c1ccc(NC(=O)CCCCCO[C@@H]2CC[C@H]3[C@@H]4CC[C@H]5CCCC[C@]5(C)[C@H]4CC[C@]23C)cc1 (stereo partly drawn) [Compound 1128, 6-((5R,8R,9S,10S,13S,14S,17R)-10,13-dimethylhexadecahydro-1H-cyclopenta[a]phenanthren-17-yloxy)-N-(4-((8S)-5-fluoro-9-(1-methyl-1H-1,2,4-triazol-5-yl)-3-oxo-3,7,8,9-tetrahydro-2H-pyrido[4,3,2-de]phthalazin-8-yl)phenyl)hexanamide] | – | – | 0.1 to 1 | – | – | – | 1 to 10 | 1 to 10 |
| CC(=O)O[C@]1(C(C)=O)CC[C@H]2[C@@H]3CCC4=CC(=O)CCC4=C3[C@@H](c3ccc(N(C)CCCCCC(=O)N4CCN(C(=O)c5cc(Cc6n[nH]c(=O)c7ccccc67)ccc5F)CC4)cc3)C[C@@]21C [Compound 1378, (8S,11R,13S,14S,17R)-17-acetyl-11-(4-((6-(4-(2-fluoro-5-((4-oxo-3,4-dihydrophthalazin-1-yl)methyl)benzoyl)piperazin-1-yl)-6-oxohexyl)(methyl)amino)phenyl)-13-methyl-3-oxo-2,3,6,7,8,11,12,13,14,15,16,17-dodecahydro-1H-cyclopenta[a]phenanthren-17-yl acetate] | – | – | – | < 0.01 | 0.1 to 1 | 0.1 to 1 | – | – |
| CC(=O)O[C@]1(C(C)=O)CC[C@H]2[C@@H]3CCC4=CC(=O)CCC4=C3[C@@H](c3ccc(N(C)CCCCCC(=O)NCCOCCOCC(=O)N4CCN(C(=O)c5cc(Cc6n[nH]c(=O)c7ccccc67)ccc5F)CC4)cc3)C[C@@]21C [Compound 1384, (8S,11R,13S,14S,17R)-17-acetyl-11-(4-((6-(2-(2-(2-(4-(2-fluoro-5-((4-oxo-3,4-dihydrophthalazin-1-yl)methyl)benzoyl)piperazin-1-yl)-2-oxoethoxy)ethoxy)ethylamino)-6-oxohexyl)(methyl)amino)phenyl)-13-methyl-3-oxo-2,3,6,7,8,11,12,13,14,15,16,17-dodecahydro-1H-cyclopenta[a]phenanthren-17-yl acetate] | – | – | – | < 0.01 | > 10 | 1 to 10 | – | – |
| C[C@]12CC[C@H]3[C@@H](CCC4=CC(=O)CC[C@@]43C)[C@@H]1CC[C@@H]2C(=O)COCCCCCC(=O)N1CCN(C(=O)c2cc(Cc3n[nH]c(=O)c4ccccc34)ccc2F)CC1 [Compound 1386, 4-(3-(4-(6-(2-((8S,9S,10R,13S,14S,17S)-10,13-dimethyl-3-oxo-2,3,6,7,8,9,10,11,12,13,14,15,16,17-tetradecahydro-1H-cyclopenta[a]phenanthren-17-yl)-2-oxoethoxy)hexanoyl)piperazine-1-carbonyl)-4-fluorobenzyl)phthalazin-1(2H)-one] | – | – | – | 0.01 to 0.1 | 0.1 to 1 | 0.1 to 1 | – | – |
| C[C@]12Cc3cn[nH]c3C[C@@H]1CC[C@@H]1[C@@H]2CC[C@]2(C)[C@@H](OCCCCCC(=O)N3CCN(C(=O)c4cc(Cc5n[nH]c(=O)c6ccccc56)ccc4F)CC3)CC[C@@H]12 [Compound 1394, 4-(3-(4-(6-(((1S,3aS,3bR,5aS,10aS,10bS,12aS)-10a,12a-dimethyl-1,2,3,3a,3b,4,5,5a,6,7,10,10a,10b,11,12,12a-hexadecahydrocyclopenta[5,6]naphtho[1,2-f]indazol-1-yl)oxy)hexanoyl)piperazine-1-carbonyl)-4-fluorobenzyl)phthalazin-1(2H)-one] | 0.1 to 1 | – | 0.1 to 1 | – | – | – | – | 1 to 10 |
